Values quoted from earlier work in PubChem BioAssay AID1259410 (Chemical Carcinogenesis Research Information System (CCRIS), 2018).

Tested on: rodent tumor promotion studies, tumor incidence
Experiment: CCRIS tumor promotion studies
[1] = Carcinogen: 7,12-DIMETHYLBENZ(A)ANTHRACENE, Doses [Carcinogen]: TOP, Route [Carcinogen]: DERMAL, Route [Promoter]: DERMAL, Species: MOUSE, Strain/Sex: FEMALE

Q: What does the source list for Oc1ccccc1-c1ccccc1?
A: outcome (Carcinogen: 7,12-DIMETHYLBENZ[A]ANTHRACENE, 57-97-6, Doses [Carcinogen]: 10 UG 2/WK FOR 5 WK, Doses [Promoter]: 0, 5 MG 2/WK FOR 47 WK BEGINNING 1 WK AFTER LAST CARCINOGEN DOSE (STUDY DURATION: 53 WK), Route [Carcinogen]: DERMAL, Route [Promoter]: DERMAL, Species: MOUSE, Strain/Sex: CD-1/FEMALE): skin: papilloma, carcinoma; outcome (Carcinogen: N-BUTYL-N-4(HYDROXYBUTYL)NITROSAMINE, 3817-11-6, Doses [Carcinogen]: 0.05% IN DRINKING WATER FOR 2 WK, Doses [Promoter]: 0, 2% IN DIET STARTING POST CARCINOGEN AND CONTINUING FOR 22 WK, LEFT URETER LIGATED 8 D POST CARCINOGEN (STUDY DURATION, Route [Carcinogen]: ORAL, Route [Promoter]: ORAL, Species: RAT, Strain/Sex: F344/MALE): bladder: papilloma; outcome (Carcinogen: N-BUTYL-N-(4-HYDROXYBUTYL)NITROSAMINE, Doses [Carcinogen]: 0.05% IN DRINKING WATER FOR 4 WK, Doses [Promoter]: 2.0% IN DIET FOR 32 WK AFTER INITIATION, Route [Carcinogen]: ORAL, Route [Promoter]: ORAL, Species: RAT, Strain/Sex: F344/MALE): urinary bladder: transitional cell carcinoma

Q: With Oc1ccc(I)cc1 as the compound, how does the outcome [1] read?
A: integumentary system (skin)

Q: With Oc1cccc(Cl)c1 as the compound, how does the outcome [1] read?
A: integumentary system (skin)

Q: With CCCCCCCCCCCCCCCCCCCC as the compound, how does the outcome (Carcinogen: 7,12-DIMETHYLBENZ(A)ANTHRACENE, Doses [Carcinogen]: TOP, Route [Carcinogen]: DERMAL, Route [Promoter]: DERMAL, Species: MOUSE, Strain/Sex: MALE,FEMALE) read?
A: integumentary system (skin)

Q: For O=c1c(O)c(-c2ccc(O)c(O)c2)oc2cc(O)cc(O)c12, which outcome (Carcinogen: N-ETHYL-N'-NITRO-N-NITROSOGUANIDINE, 4245-77-6, Doses [Carcinogen]: 0.01% IN DRINKING WATER FOR 4 WK PRIOR TO PROMOTER DOSES, Doses [Promoter]: 2% IN DIET FOR 16 WK (STUDY DURATION: 20 WK), Route [Carcinogen]: ORAL, Route [Promoter]: ORAL, Species: MOUSE, Strain/Sex: C57BL6/MALE) is on record?
A: duodenum: tumor

Q: With CC(=O)OO as the compound, how does the outcome [1] read?
A: integumentary system (skin)

Q: With Oc1cc(O)c2c(c1)O[C@H](c1ccc(O)c(O)c1)[C@@H](O)C2 as the compound, how does the outcome (Carcinogen: N-METHYL-N'-NITRO-N-NITROSOGUANIDINE, 70-25-7, Doses [Carcinogen]: 150 MG/KG BW ONCE, Doses [Promoter]: 0, 0.8% IN DIET FOR 51 D BEGINNING 1 WK POST CARCINOGEN DOSE (STUDY DURATION: 52 WK), Route [Carcinogen]: GAVAGE, Route [Promoter]: ORAL, Species: RAT, Strain/Sex: F344/MALE) read?
A: forestomach: carcinoma; glandular stomach: adenocarcinoma

Q: For C=C1C[C@@H]2[C@H](CC[C@]3(C)C(=O)CC[C@@H]23)[C@@]2(C)C=CC(=O)C=C12, which outcome (Carcinogen: N-Methyl-N-nitrosourea, 684-93-5, Doses [Carcinogen]: 50 mg/kg bw, intraperitoneal, twice on days 43 and 49 of age, Doses [Promoter]: 0, 0.0001, 0.001% in diet from 7 d before carcinogen administration for 12 wks (Study duration 12 wks), Route [Carcinogen]: intraperitoneal, Route [Promoter]: Oral, Species: Rat, Strain/Sex: Sprague-Dawley/Female (19-20/Group)) is on record?
A: mammary gland: various (statistically significant increase in tumor frequency, b

Q: What does the source list for CN(C)C(=S)SSC(=S)N(C)C?
A: outcome (Carcinogen: 7,12-DIMETHYLBENZ[A]ANTHRACENE, 57-97-6, Doses [Carcinogen]: 52 UG IN 100 µL ACETONE ONCE, Doses [Promoter]: 0, 100 MG/KG BW IN 100 µL DMSO 3/WK FOR 51 WK BEGINNING 1 WK POST CARCINOGEN DOSE (STUDY DURATION: 52 WK), Route [Carcinogen]: DERMAL, Route [Promoter]: DERMAL, Species: MOUSE, Strain/Sex: SWISS/FEMALE): skin: tumor; outcome (Carcinogen: 7,12-DIMETHYLBENZ[A]ANTHRACENE, 57-97-6, Doses [Carcinogen]: 52 UG IN 100 µL ACETONE ONCE, Doses [Promoter]: 0, 100 MG/KG BW IN 100 µL DMSO 3/WK FOR 51 WK BEGINNING 1 WK POST CARCINOGEN DOSE (STUDY DURATION: 52 WK), Route [Carcinogen]: DERMAL, Route [Promoter]: DERMAL, Species: MOUSE, Strain/Sex: SWISS/MALE): skin: tumor

Q: For Cc1ncc([N+](=O)[O-])n1CCO, which outcome (Carcinogen: 1,2-DIMETHYLHYDRAZINE, 540-73-8, Doses [Carcinogen]: 40 MG/KG/WK FOR 20 WK, Doses [Promoter]: 0, 18 MG/KG/D FOR 20 WK (STUDY DURATION: 20 WK), Route [Carcinogen]: SUBCUTANEOUS, Route [Promoter]: GAVAGE, Species: RAT, Strain/Sex: WISTAR/MALE) is on record?
A: colon: tumor

Q: What about the outcome (Carcinogen: UV IRRADIATION, Doses [Carcinogen]: 0.53 J/CM2 INCREASED BY 20% EVERY 2 WK TO 1.60 J/CM2 AND MAINTAINED AT 1.60 J/CM2 UNTIL DEATH, ADMINISTERED 5 D/WK FOR 1, Doses [Promoter]: 0, 15 UG/G BEGINNING 2 WK POST FIRST CARCINOGEN DOSE ADMINISTERED 2 HR PRIOR TO EACH CARCINOGEN DOSE (STUDY DURATION: 30, Route [Carcinogen]: DERMAL, Route [Promoter]: INTRAPERITONEAL, Species: MOUSE, Strain/Sex: SKH/HRL/FEMALE) of the same compound?
A: skin: tumor

Q: With CC(=O)Nc1ccc2c(c1)C(O)c1ccccc1-2 (stereo not drawn) as the compound, how does the outcome (Carcinogen: DIETHYLNITROSAMINE, 55-18-5, Doses [Carcinogen]: 200 MG/KG BW IN 0.9% SALINE ONCE, Doses [Promoter]: 0, 0.1 MMOL/KG BW IN POLYETHYLENE GLYCOL FOR 5 D BEGINNING 1 WK POST CARCINOGEN DOSE, 70% HEPATECTOMY PERFORMED 3 D AFTE, Route [Carcinogen]: INTRAPERITONEAL, Route [Promoter]: GAVAGE, Species: RAT, Strain/Sex: SPRAGUE-DAWLEY/MALE) read?
A: liver: hepatocellular carcinoma

Q: For O=c1cc[nH]c(=O)[nH]1, which outcome (Carcinogen: N-ETHYL-N-HYDROXYETHYLNITROSAMINE, 13147-25-6, Doses [Carcinogen]: 0.05% IN DRINKING WATER FOR 3 WK, Doses [Promoter]: 0, 3% IN DIET FOR 3 WK ADMINISTERED SIMULTANEOUSLY WITH CARCINOGEN (STUDY DURATION: 52 WK), Route [Carcinogen]: ORAL, Route [Promoter]: ORAL, Species: RAT, Strain/Sex: F344/FEMALE) is on record?
A: kidney: adenocarcinoma

Q: And the outcome (Carcinogen: N-METHYL-N-NITROSOUREA, 684-93-5, Doses [Carcinogen]: 20 MG/KG 2/WK FOR 4 WK, Doses [Promoter]: 0, 3% IN DIET FOR 20 WK BEGINNING POST LAST CARCINOGEN DOSE (STUDY DURATION: 24 WK), Route [Carcinogen]: INTRAPERITONEAL, Route [Promoter]: ORAL, Species: RAT, Strain/Sex: F344/MALE)?
A: urinary bladder: carcinoma

Q: For N, which outcome (Carcinogen: N-METHYL-N'-NITRO-N-NITROSOGUANIDINE, 70-25-7, Doses [Carcinogen]: 83 MG/L IN DRINKING WATER FOR 24 WK, Doses [Promoter]: 0, 0.01% IN DRINKING WATER BEGINNING POST LAST CARCINOGEN DOSE AND CONTINUING FOR 24 WK (STUDY DURATION: 48 WK), Route [Carcinogen]: ORAL, Route [Promoter]: ORAL, Species: RAT, Strain/Sex: SPRAGUE-DAWLEY/MALE) is on record?
A: stomach: tumor

Q: What about the outcome (Carcinogen: N-METHYL-N'-NITRO-N-NITROSOGUANIDINE, 70-25-7, Doses [Carcinogen]: 83 MG/L IN DRINKING WATER FOR 24 WK, Doses [Promoter]: 0, 0.01% IN DRINKING WATER FOR 24 WK BEGINNING POST CARCINOGEN TREATMENT (STUDY DURATION: 48 WK), Route [Carcinogen]: ORAL, Route [Promoter]: ORAL, Species: RAT, Strain/Sex: SPRAGUE-DAWLEY/MALE) of the same compound?
A: stomach: adenocarcinoma

Q: For OC[C@H]1O[C@@H]2O[C@H]3[C@H](O)[C@@H](O)[C@@H](O[C@H]4[C@H](O)[C@@H](O)[C@@H](O[C@H]5[C@H](O)[C@@H](O)[C@@H](O[C@H]6[C@H](O)[C@@H](O)[C@@H](O[C@H]7[C@H](O)[C@@H](O)[C@@H](O[C@H]8[C@H](O)[C@@H](O)[C@@H](O[C@H]1[C@H](O)[C@H]2O)O[C@@H]8CO)O[C@@H]7CO)O[C@@H]6CO)O[C@@H]5CO)O[C@@H]4CO)O[C@@H]3CO, which outcome (Carcinogen: N-ETHYL-N-(2-HYDROXYETHYL)NITROSAMINE, Doses [Carcinogen]: 500, 1000 PPM IN DIET FOR TWO WK, Doses [Promoter]: 450 MG/KG 1/D FOR 7 D AFTER INITIATION FOR 2 WK, Route [Carcinogen]: ORAL, Route [Promoter]: SUBCUTANEOUS, Species: RAT, Strain/Sex: WISTAR/MALE) is on record?
A: kidney: tubular cell tumor

Q: Which outcome (Carcinogen: N-NITROSODIETHYLAMINE, 55-18-5, Doses [Carcinogen]: 75 MG/KG BW IN 0.85% SALINE ONCE, Doses [Promoter]: 0, 453 PPM IN DIET FOR DURATION OF STUDY BEGINNING 2 WK POST CARCINOGEN DOSE (STUDY DURATION: 78 WK), Route [Carcinogen]: INTRAPERITONEAL, Route [Promoter]: ORAL, Species: RAT, Strain/Sex: F344/MALE) does the source give for C=CCC1(C(C)C)C(=O)NC(=O)NC1=O here?
A: liver: adenoma

Q: Which outcome (Carcinogen: 7,12-DIMETHYLBENZ[A]ANTHRACENE, 57-97-6, Doses [Carcinogen]: 100 NMOL ONCE, Doses [Promoter]: 0, 20 NMOL 2/WK FOR 24 WK BEGINNING 1 WK POST CARCINOGEN DOSE (STUDY DURATION: 25 WK), Route [Carcinogen]: DERMAL, Route [Promoter]: DERMAL, Species: MOUSE, Strain/Sex: NMRI/FEMALE) does the source give for CCC1(CCCCCCCCCCCCC(=O)OC2C(C)C3(O)C(C=C(CO)CC4(O)C(=O)C(C)=CC43)C3C(C)(C)C23OC(C)=O)OCC(C)(C)N1[O] (stereo not drawn) here?
A: skin: tumor

Q: Which outcome (Carcinogen: DIETHYLNITROSAMINE, 55-18-5, Doses [Carcinogen]: 20 PPM IN DRINKING WATER FOR 14 WK, Doses [Promoter]: 0, 5, 10 PPM TECHNICAL GRADE IN DIET BEGINNING 4 WK POST LAST CARCINOGEN DOSE AND CONTINUING FOR 25 WK (STUDY DURATION:, Doses [Promoter]: 0, 5, 10 PPM TECHNICAL GRADE IN DIET BEGINNING 4 WK POST LAST CARCINOGEN DOSE AND CONTINUING FOR 25 WK (STUDY DURATION:, Route [Carcinogen]: ORAL, Route [Promoter]: ORAL, Species: MOUSE, Strain/Sex: B6C3F1/MALE) does the source give for ClC1=C(Cl)C2(Cl)C3C(Cl)C=CC3C1(Cl)C2(Cl)Cl (stereo not drawn) here?
A: liver: adenoma or carcinoma
